Patent US6348460B1 (priority 1997, dated 2002)

| melting point | SMILES |
| --- | --- |
| 165 °C | Cc1nnsc1C(=O)NS(C)(=O)=O |
| 60 °C (dec.) | Cc1ccc(N(SN2CCOCC2)C(=O)c2snnc2C)cc1 [b183, 4-methyl-N-(4-methylphenyl)-N-morpholinothio-1,2,3-thiadiazole-5-carboxamide] |
